Results: patent US20120053197A1, “TRICYCLIC PYRIDINE DERIVATIVES, MEDICAMENTS CONTAINING SUCH COMPOUNDS, THEIR USE AND PROCESS FOR THEIR PREPARATION” (BOEHRINGER INGELHEIM INTERNATIONAL GMBH, priority 2010, published 2012)

Target: T1, recombinant human CETP (Homo sapiens, UniProt P11597)
T1 construct: made in house; host or cells: CHO cells (protein secreted into conditioned medium)
T1 sequence (P11597 18-493): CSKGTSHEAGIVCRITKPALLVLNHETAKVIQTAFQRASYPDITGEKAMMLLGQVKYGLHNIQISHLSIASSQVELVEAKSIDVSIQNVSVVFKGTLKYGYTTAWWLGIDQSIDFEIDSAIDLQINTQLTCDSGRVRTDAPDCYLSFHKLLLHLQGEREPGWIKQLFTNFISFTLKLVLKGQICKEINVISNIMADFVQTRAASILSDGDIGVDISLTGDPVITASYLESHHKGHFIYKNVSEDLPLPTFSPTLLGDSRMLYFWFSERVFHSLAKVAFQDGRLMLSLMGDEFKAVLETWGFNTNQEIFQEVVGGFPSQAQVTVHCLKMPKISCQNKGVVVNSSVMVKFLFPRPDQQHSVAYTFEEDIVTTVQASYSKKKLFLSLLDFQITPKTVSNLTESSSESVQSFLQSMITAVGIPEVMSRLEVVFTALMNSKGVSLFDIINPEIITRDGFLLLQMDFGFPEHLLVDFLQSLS
Assay: CETP in vitro fluorometric assay (Roar Biomedical), cholesterol ester transfer from HDL to LDL
Assay type: biochemical
Details: recombinant human CETP from CHO cells; 3 hours at 37° C.; fluorescence ex 485 nm / em 535 nm; compound concentrations between 1 nM and 30 μM; read-out: IC50 values for inhibition of CETP
Procedure: CETP inhibitory activity of compounds of the present invention can be determined in a fluorometric assay puchased from Roar Biomedical, Inc. (New York, N.Y., USA). […] Recombinant human CETP was partially purified from medium conditioned by CETP expressing CHO cells. In a 384 well format 2.5 μl of compound solution in DMSO was combined with 2 μl of donor solution, 2 μl of acceptor solution and 0.8 μl of recombinant human CETP solution in a total volume of 100 μl with assay buffer and incubated for 3 hours at 37° C. The fluorescence intensity was measured at excitation wavelength of 485 nm and emission wavelength of 535 nm. IC50 values are calculated from dose effect curves from compound concentrations between 1 nM and 30 μM.

Row | Structure (SMILES) | IC50 [nM]
1 | CC(C)c1nc2c(c3c1[C@@H](c1ccc(C(F)(F)F)cc1)OC31CCCC1)[C@@H](O)CC(C)(C)C2 [Example 1, (3′R,9′S)-4′-isopropyl-7′,7′-dimethyl-3′-(4-(trifluoromethyl)phenyl)-6′,7′,8′,9′-tetrahydro-3′H-spiro[cyclopentane-1,1′-furo[3,4-c]quinolin]-9′-ol] | 54
2 | CC(C)c1nc2c(c3c1[C@@H](c1ccc(F)cc1)OC31CCCC1)[C@@H](O)CC(C)(C)C2 [1(8), (3′R,9′S)-3′-(4-fluorophenyl)-4′-isopropyl-7′,7′-dimethyl-6′,7′,8′,9′-tetrahydro-3′H-spiro[cyclopentane-1,1′-furo[3,4-c]quinolin]-9′-ol] | 856
3 | CC(C)c1nc2c(c3c1[C@H](c1ccc(C(F)(F)F)cc1)O[C@]31C=CCC1)[C@@H](O)CC(C)(C)C2 [1(2), (1R,3′S,9′S)-4′-isopropyl-7′,7′-dimethyl-3′-(4-(trifluoromethyl)phenyl)-6′,7′,8′,9′-tetrahydro-3′H-spiro[cyclopent[2]ene-1,1′-furo[3,4-c]quinolin]-9′-ol] | 4680
4 | CC(C)c1nc2c(c3c1[C@@H](c1ccc(C(F)(F)F)s1)OC31CCCC1)[C@@H](O)CC(C)(C)C2 [1(24), (3′S,9′S)-4′-isopropyl-7′,7′-dimethyl-3′-(5-(trifluoromethyl)thiophen-2-yl)-6′,7′,8′,9′-tetrahydro-3′H-spiro[cyclopentane-1,1′-furo[3,4-c]quinolin]-9′-ol] | 286
5 | CC(C)c1nc2c(c3c1[C@@H](c1ccc(C(C)(C)C#N)cc1)OC31CCCC1)[C@@H](O)CC(C)(C)C2 [1(22), 2-(4-((3′R,9′S)-9′-hydroxy-4′-isopropyl-7′,7′-dimethyl-6′,7′,8′,9′-tetrahydro-3′H-spiro[cyclopentane-1,1′-furo[3,4-c]quinoline]-3′-yl)phenyl)-2-methylpropanenitrile] | 47
6 | CC(C)c1nc2c(c3c1[C@@H](c1ccc(C(F)(F)F)c(F)c1)OC31CCCC1)[C@@H](O)CC(C)(C)C2 [1(16), (3′R,9′S)-3′-(3-fluoro-4-(trifluoromethyl)phenyl)-4′-isopropyl-7′,7′-dimethyl-6′,7′,8′,9′-tetrahydro-3′H-spiro[cyclopentane-1,1′-furo[3,4-c]quinolin]-9′-ol] | 43
7 | CC1(C)Cc2nc(C3CCOCC3)c3c(c2[C@@H](O)C1)C1(CCCC1)O[C@H]3c1ccc(C(F)(F)F)cc1 [1(13), (3′S,9′S)-7′,7′-dimethyl-4′-(tetrahydro-2H-pyran-4-yl)-3′-(4-(trifluoromethyl)phenyl)-6′,7′,8′,9′-tetrahydro-3′H-spiro[cyclopentane-1,1′-furo[3,4-c]quinolin]-9′-ol] | 6890
8 | CC(C)c1nc2c(c3c1[C@@H](c1cc(F)cc(F)c1)OC31CCCC1)[C@@H](O)CC(C)(C)C2 [1(38), (3′R,9′S)-3′-(3,5-difluorophenyl)-4′-isopropyl-7′,7′-dimethyl-6′,7′,8′,9′-tetrahydro-3′H-spiro[cyclopentane-1,1′-furo[3,4-c]quinolin]-9′-ol] | 3320
9 | CC(C)c1nc2c(c3c1[C@@H](c1cccc(C(F)(F)F)c1)OC31CCCC1)[C@@H](O)CC(C)(C)C2 [1(41), (3′R,9′S)-4′-isopropyl-7′,7′-dimethyl-3′-(3-(trifluoromethyl)phenyl)-6′,7′,8′,9′-tetrahydro-3′H-spiro[cyclopentane-1,1′-furo[3,4-c]quinolin]-9′-ol] | 524
10 | CC(C)c1nc2c(c3c1[C@@H](c1ccc(C#N)cc1)OC31CCCC1)[C@@H](O)CC(C)(C)C2 [1(20), 4-((3′R,9′S)-9′-hydroxy-4′-isopropyl-7′,7′-dimethyl-6′,7′,8′,9′-tetrahydro-3′H-spiro[cyclopentane-1,1′-furo[3,4-c]quinoline]-3′-yl)benzonitrile] | 1080
11 | CC(C)c1ccc([C@H]2OC3(CCCC3)c3c2c(C(C)C)nc2c3[C@@H](O)CC(C)(C)C2)cc1 [1(7), (3′R,9′S)-4′-isopropyl-3′-(4-isopropylphenyl)-7′,7′-dimethyl-6′,7′,8′,9′-tetrahydro-3′H-spiro[cyclopentane-1,1′-furo[3,4-c]quinolin]-9′-ol] | 77
12 | CC(C)c1nc2c(c3c1[C@@H](c1ccc(C(C)(C)C)cc1)OC31CCCC1)[C@@H](O)CC(C)(C)C2 [1(11), (3′R,9′S)-3′-(4-tert-butylphenyl)-4′-isopropyl-7′,7′-dimethyl-6′,7′,8′,9′-tetrahydro-3′H-spiro[cyclopentane-1,1′-furo[3,4-c]quinolin]-9′-ol] | 36
13 | CC1(C)Cc2nc(C3CCCC3)c3c(c2[C@@H](O)C1)C1(CCCC1)O[C@@H]3c1ccc(C(F)(F)F)cc1 [1(6), (3′R,9′S)-4′-cyclopentyl-7′,7′-dimethyl-3′-(4-(trifluoromethyl)phenyl)-6′,7′,8′,9′-tetrahydro-3′H-spiro[cyclopentane-1,1′-furo[3,4-c]quinolin]-9′-ol] | 37
14 | CC(C)c1nc2c(c3c1[C@H](c1ccc(C(C)(C)C#N)cc1)OC31CCCC1)[C@@H](O)CC(C)(C)C2 [1(23), 2-(4-((3′S,9′S)-9′-hydroxy-4′-isopropyl-7′,7′-dimethyl-6′,7′,8′,9′-tetrahydro-3′H-spiro[cyclopentane-1,1′-furo[3,4-c]quinoline]-3′-yl)phenyl)-2-methylpropanenitrile] | 2140
15 | CC(C)c1nc2c(c3c1[C@@H](c1ccc(C(C)(C)O)cc1)OC31CCCC1)[C@@H](O)CC(C)(C)C2 [1(26), (3′R,9′S)-3′-(4-(2-hydroxypropan-2-yl)phenyl)-4′-isopropyl-7′,7′-dimethyl-6′,7′,8′,9′-tetrahydro-3′H-spiro[cyclopentane-1,1′-furo[3,4-c]quinolin]-9′-ol] | 875
16 | CC(C)c1nc2c(c3c1[C@@H](c1ccc(C(F)(F)F)cc1)OC3(C)C)[C@@H](O)CC(C)(C)C2 [1(3), (3R,9S)-4-isopropyl-1,1,7,7-tetramethyl-3-(4-(trifluoromethyl)phenyl)-1,3,6,7,8,9-hexahydrofuro[3,4-c]quinolin-9-ol] | 460
17 | CC(C)c1nc2c(c3c1[C@@H](c1ccc(C(C)(C)C)cc1)OC3(C)C)[C@@H](O)CC(C)(C)C2 [1(18), (3R,9S)-3-(4-tert-butylphenyl)-4-isopropyl-1,1,7,7-tetramethyl-1,3,6,7,8,9-hexahydrofuro[3,4-c]quinolin-9-ol] | 363
18 | CC(C)Cc1ccc([C@H]2OC3(CCCC3)c3c2c(C(C)C)nc2c3[C@@H](O)CC(C)(C)C2)cc1 [1(27), (3′R,9′S)-3′-(4-isobutylphenyl)-4′-isopropyl-7′,7′-dimethyl-6′,7′,8′,9′-tetrahydro-3′H-spiro[cyclopentane-1,1′-furo[3,4-c]quinolin]-9′-ol] | 299
19 | CC(C)c1ccc([C@H]2OC3(CCCC3)c3c2c(C(C)C)nc2c3[C@@H](O)CC3(CCC3)C2)cc1 [1(35), (3′R,9′S)-4′-isopropyl-7′,7′-(propan-1,3-diyl)-3′-(4-(isopropyl)phenyl)-6′,7′,8′,9′-tetrahydro-3′H-spiro[cyclopentane-1,1′-furo[3,4-c]quinolin]-9′-ol] | 52
20 | Cc1ccc([C@H]2OC3(CCCC3)c3c2c(C(C)C)nc2c3[C@@H](O)CC(C)(C)C2)cc1 [1(14), (3′R,9′S)-4′-isopropyl-7′,7′-dimethyl-3′-p-tolyl-6′,7′,8′,9′-tetrahydro-3′H-spiro[cyclopentane-1,1′-furo[3,4-c]quinolin]-9′-ol] | 409
21 | CC(C)c1nc2c(c3c1[C@@H](c1ccc(C4(C)CC4)cc1)OC31CCCC1)[C@@H](O)CC(C)(C)C2 [1(40), (3′R,9′S)-4′-isopropyl-7′,7′-dimethyl-3′-(4-(1-methylcyclopropyl)phenyl)-6′,7′,8′,9′-tetrahydro-3′H-spiro[cyclopentane-1,1′-furo[3,4-c]quinolin]-9′-ol] | 37
22 | CC(C)c1nc2c(c3c1[C@@H](c1ccc(C4CC4)cc1)OC31CCCC1)[C@@H](O)CC(C)(C)C2 [1(45), (3′R,9′S)-3′-(4-cyclopropylphenyl)-4′-isopropyl-7′,7′-dimethyl-6′,7′,8′,9′-tetrahydro-3′H-spiro[cyclopentane-1,1′-furo[3,4-c]quinolin]-9′-ol] | 122
23 | CC(C)c1nc2c(c3c1[C@@H](c1ccc(C(F)(F)F)cc1)OC31CCOCC1)[C@@H](O)CC(C)(C)C2 [1(30), (3R,9S)-4-isopropyl-7,7-dimethyl-3-(4-(trifluoromethyl)phenyl)-2′,3′,5′,6,6′,7,8,9-octahydro-3H-spiro[furo[3,4-c]quinoline-1,4′-pyran]-9-ol] | 18
24 | CC1(C)Cc2nc(C3CCCC3)c3c(c2[C@@H](O)C1)C1(CCCC1)O[C@@H]3c1cccc(C(C)(C)C)c1 [1(31), (3′R,9′S)-3′-(3-tert-butylphenyl)-4′-cyclopentyl-7′,7′-dimethyl-6′,7′,8′,9′-tetrahydro-3′H-spiro[cyclopentane-1,1′-furo[3,4-c]quinolin]-9′-ol] | 1070
